The values below come from publication PMC11134331, “Cell-active small molecule inhibitors validate the SNM1A DNA repair nuclease as a cancer target” (Chemical Science, 2024).

One test concerns the target T1, SNM1C (Homo sapiens, UniProt Q96SD1).
T1 construct: for the MBL and β-CASP domains of SNM1C (aa 1–362) into the baculovirus expression vector pBF-6HZB; made in house; host or cells: Sf9 insect cells (baculovirus)
The test is described as follows: gel-based nuclease assay, SNM1C. Conditions: 2.5 nM SNM1C. Type of test: biochemical. From the text: To validate the inhibition of SNM1A, SNM1B, and SNM1C observed in the fluorescence-based screening assays, we then performed gel-based assays using 3′ terminally-labelled oligonucleotide substrates that enable both quantitative and qualitative (visual) assessment of the pattern of inhibition, for a subset of compounds. Importantly, whereas the fluorescence-based assay measures a single hydrolytic event at the substrate terminus, the gel-based nuclease assay informs on the pattern of digestion of the entire 51-mer substrate DNA over time.
Standard exonuclease assays were carried out in a 10 μL final volume containing 20 mM HEPES-KOH, pH 7.5, 50 mM KCl, 0.5 mM TCEP, 10 mM MgCl2, 0.05% (v/v) Triton X-100, 5% (v/v) glycerol, and SNM1 proteins as indicated. Inhibitors were dissolved in DMSO and diluted immediately prior to the reaction in the above buffer. Inhibitors were serially diluted two-fold from 100 μM. The DMSO concentration was kept constant at 0.1% (v/v) in the final reaction mixture. Inhibitors were incubated with the indicated SNM1 enzyme for 10 minutes at room temperature; reactions were initiated by addition of 10 nM DNA substrate and incubated at 37 °C for 20 min. Reactions were quenched by addition of 5 μL stop solution (95% formamide, 10 mM EDTA, 0.25% (v/v) xylene cyanol, 0.25% (v/v) bromophenol blue) and heated at 95 °C for 3 min. Reactions were analysed by 20% denaturing polyacrylamide gel electrophoresis solution of 19 : 1 acrylamide:bis-acrylamide, BioRad and 7 M urea (Sigma Aldrich) in 1 × TBE (Tris-borate EDTA) buffer. Electrophoresis was carried out at 525 V for 75 minutes; gels were subsequently fixed for 60 minutes in a 50% (v/v) methanol, 10% (v/v) acetic acid solution, and dried at 80 °C for two hours under vacuum. Dried gels were exposed to a Kodak Phosphor imager screen and scanned using a Typhoon 9500 instrument (GE Healthcare), scanned images were quantified using ImageJ.
Suppl. Figure 10. […] Products were analysed by 20% denaturing PAGE. […]

The subject of test [1] is SNM1A- cells generated in U2OS background. The test is described as follows: clonogenic survival assay, SNM1A- U2OS cells. Type of test: cell-based, human. Conditions: 50 μM compound. The protocol:
Clonogenic assays were performed in 10 cm tissue culture dishes (for RPE-1 cells, U2OS cells and derived clones). Cells (1000 per dish) were seeded in complete media (10 mL) and allowed to attach overnight, then treated with cisplatin or cisplatin plus inhibitor for the times stated. Following treatments, cells were allowed to grow and form colonies for 10 days. Colonies formed were stained with Coomassie R250 (Sigma) and counted on a COLCount Colony Counter (Oxford Optronix). All experiments represent the mean (±SEM) of at least three biological repeats of duplicate dishes/flasks for each treatment.

The target of a further test is T2, SNM1A (Homo sapiens, UniProt Q6PJP8).
T2 sequence (Q6PJP8 676-1040): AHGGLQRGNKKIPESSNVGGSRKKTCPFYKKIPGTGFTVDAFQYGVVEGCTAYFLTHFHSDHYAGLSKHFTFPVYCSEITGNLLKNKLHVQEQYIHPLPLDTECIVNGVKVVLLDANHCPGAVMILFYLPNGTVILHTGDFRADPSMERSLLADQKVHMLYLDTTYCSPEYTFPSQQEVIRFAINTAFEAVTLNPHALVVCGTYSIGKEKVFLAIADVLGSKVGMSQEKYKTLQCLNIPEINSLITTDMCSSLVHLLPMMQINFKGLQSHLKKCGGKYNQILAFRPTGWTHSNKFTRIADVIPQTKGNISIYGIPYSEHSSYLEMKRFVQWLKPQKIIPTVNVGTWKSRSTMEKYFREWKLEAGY
The test is described as follows: real-time fluorescence-based nuclease assay, SNM1A. To be noted: SNM1A IC50, real-time fluorescence-based nuclease assay; resynthesised compounds. In kind it is biochemical. Further details: DNA encoding for the MBL and β-CASP domains of SNM1A (aa 676–1040) was cloned into the baculovirus transfer vector pFB-LIC-Bse; inferred from vector pFB-LIC-Bse and the IMAC purification; made in house; host or cells: Sf9 insect cells (baculovirus). Here is the method:
In brief, the fluorescence-based nuclease assay utilises a chemically modified 20-nucleotide ssDNA substrate with a fluorescein isothiocyanate (FITC) derived 5′-group and an internal black-hole-quencher-1 (BHQ-1), located eight nucleotides distal to the fluorescein group. In the intact substrate the BHQ-1 suppresses fluorescence, however, exonucleolytic digestion of the substrate from the 5′ end by SNM1A uncouples the BHQ-1 and FITC moieties (see Fig. 1D). Spectra were measured every 140 seconds with an increase in fluorescence indicating enzymatic activity by SNM1A (concentration: 0.1 nM).
Fluorescence-based nuclease digestion SNM1A–C assays were performed as described.[30,45] In the case of SNM1A and SNM1B, a 20-mer oligonucleotide with a 5′ FITC-conjugated-T and an internal BHQ-1 (black hole quencher) conjugated-T, eight nucleotides distal (3′) to the fluor was utilised; whereas for SNM1C a 20-mer oligonucleotide with a 5′ FITC-conjugated-T and a 3′ BHQ-1(black hole quencher) was used to capture all possible endonucleolytic incisions. Reactions (25 μL) were performed in 384 well microplates in nuclease buffer (20 mM HEPES-KOH pH 7.5, 50 mM KCl, 10 mM MgCl2, 0.5 mM TCEP, 0.05% (v/v) Triton-X, 0.1 mg mL^−1 BSA, 5% (v/v) glycerol) with SNM1A/B/C (0.1 nM SNM1A, 0.5 nM SNM1B and 1 nM SNM1C) as indicated. Proteins were incubated for 10 min at RT with the stated compound where applicable, before the reaction was initiated with the addition of 10 nM DNA substrate. […] Fluorescence spectra were measured every 140 s, for 35 min, at 37 °C. The fluorescence intensity of each well was plotted against compound concentration and fitted using a log (inhibitor) response curve using GraphPad Prism software (GraphPad Software, Inc., La Jolla, CA, USA).

One may read the IC50 as the concentration that inhibits the measured activity by half. A low value points to inhibition by little substance.

Molecules are shown by their SMILES.

T1 sequence (Q96SD1 1-362): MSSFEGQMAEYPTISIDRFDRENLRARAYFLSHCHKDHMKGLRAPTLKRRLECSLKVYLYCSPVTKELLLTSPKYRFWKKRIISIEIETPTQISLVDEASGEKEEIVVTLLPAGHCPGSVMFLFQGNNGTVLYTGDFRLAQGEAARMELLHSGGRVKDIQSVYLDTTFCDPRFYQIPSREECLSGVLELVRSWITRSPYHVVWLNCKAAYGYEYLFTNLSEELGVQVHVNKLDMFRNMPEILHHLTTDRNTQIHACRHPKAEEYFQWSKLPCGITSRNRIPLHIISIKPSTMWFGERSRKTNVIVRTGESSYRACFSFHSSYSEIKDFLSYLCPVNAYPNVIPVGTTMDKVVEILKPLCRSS

Turning to `C[C@H](Nc1nc(NCc2ccco2)nc2ccc(Cl)cc12)C(=O)NO` [compound 19], the “inhibition of SNM1C in gel-based assay” value against SNM1C is on record as “inhibits each of SNM1A–C”. Moreover, the “effect on cisplatin sensitivity” value in test [1] was “similarly sensitive to cisplatin treatment in the presence or absence of 19”. The compound also registered an IC50 against SNM1A of 44 µM.
